Test results taken from patent publication US11918628B2, “Controlled-release PTH compound” (ASCENDIS PHARMA BONE DISEASES A/S, priority 2016, dated 2024).

Columns and labels:
TPTx rats = assay: 28-days study in thyroparathyroidectomised (TPTx) rats with daily subcutaneous injections of conjugate 18 or PTH(1-84); format: in vivo, rat
Method: Quantitative measurements of serum calcium (sCa), urinary calcium and serum phosporous (sP) were performed on a Roche-Hitachi P800 modular biochemistry instrument.
This study was performed in order to test and compare the effect of daily subcutaneous injection of compound 18 and PTH(1-84), the current standard of care, in an animal disease model relevant for investigating treatment of hypoparathyroidism (HP). Rats subjected to thyroparathyroidectomy (TPTx) by blunt dissection are unable to produce parathyroid hormone, PTH, the major regulator of calcium homeostasis. […] 17 weeks old female SD TPTx rats (n=9/group) were dosed subcutaneously for 28 days with compound 18 ([…]; 1.2 nmol/kg/d, in 10 mM succinic acid, 46 g/L mannitol, pH 4.0), PTH(1-84) (70 μg PTH eq/kg/d; 7.3 nmol/kg/d; in 10 mM citrate, mannitol 39.0 g/L, pH 5.0) or vehicle. Additionally, one group of sham operated rats (n=9) representing normophysiological background control were also given vehicle. Serum calcium (sCa) and phosporous (sP) levels in the animals were measured pre- and post-dose on days 1, 6, 12 and 27. Moreover, bone turnover markers (P1NP and CTx) were measured and bone quality assessed by ex vivo pQCT.

patients = conditions: 6-year follow-up; cited from earlier work
[1] = tested on: patients with hypoparathyroidism; conditions: cited from earlier work
rats = conditions: daily injections; cited from earlier work
[2] = tested on: patients with hypoparathyroidism; conditions: cited from earlier work; remark: listed apart in the source

Row | Molecule | trabecular and cortical BMD/bone in vertebrae after 28 days of treatment (TPTx rats; TPTx rats, 28 days daily sc) | trabecular BMD compared to both control groups (TPTx rats; TPTx rats, 28 days daily sc, 7.3 nmol/kg/d) | sCa ratio treated/sham-control at day 12 (TPTx rats; TPTx rats, daily sc, day 12) | effect on serum phosphorous (sP) (TPTx rats; TPTx rats, daily sc, compound 18 1.2 nmol/kg/d, PTH(1-84) 7.3 nmol/kg/d) | effect on serum calcium (sCa) (TPTx rats; TPTx rats, daily sc, compound 18 1.2 nmol/kg/d, PTH(1-84) 7.3 nmol/kg/d, versus vehicle-injected TPTx rats) | serum calcium (sCa) at day 12 (TPTx rats; female SD TPTx rats, daily sc, day 12) | bone mineral density (BMD) by DXA (patients) | bone turnover markers (patients) | urinary calcium excretion 2-8 hours after injection ([1]; 2-8 hours after injection) | urinary calcium excretion over the 24-hour period ([1]; 24-hour period after injection) | urinary phosphate excretion ([1]; after injection) | participants who achieved normal blood calcium levels on reduced doses of calcium supplements and active forms of vitamin D ([1]; pivotal trial, once-daily sc, adjunct to vitamin D and calcium) | patients who developed hypercalcemia at one or more measurements during a 24-hour period ([1]; serum calcium monitored after injection) | incidences of hypercalcemia, hypocalcemia or hypercalciuria relative to conventional therapy ([1]; treated patients) | osteosarcoma rate (rats) | daily dose with pump delivery, lower than with the twice daily injection regimen ([2]; pump delivery versus twice daily injection) | calcium levels with pump delivery ([2]; pump delivery, over 6-months) | urinary calcium excretion with pump delivery ([2]; pump delivery)
1 | PTH(1-84): Natpara, PTH(1-84), polypeptide with the sequence of SEQ ID NO:1; the current standard of care | anabolic effect | significant increase | 0.76 | minimal decrease | did not lead to increase in sCa | 8.1 mg/dL | increases in lumbar spine and declines in the distal ⅓ radius | remained greater than pretreatment values | reduced | did not change | increased only during the first 8 hours | 42% | 71% | has not demonstrated an ability to reduce | dose dependent increase | – | – | –
2 | CC[C@H](C)[C@H](NC(=O)[C@H](CCC(=O)O)NC(=O)[C@H](CO)NC(=O)[C@@H](NC(=O)[C@@H](N)CO)C(C)C)C(=O)N[C@@H](CCC(N)=O)C(=O)N[C@@H](CC(C)C)C(=O)N[C@@H](CCSC)C(=O)N[C@@H](Cc1cnc[nH]1)C(=O)N[C@@H](CC(N)=O)C(=O)N[C@@H](CC(C)C)C(=O)NCC(=O)N[C@@H](CCCCN)C(=O)N[C@@H](Cc1cnc[nH]1)C(=O)N[C@@H](CC(C)C)C(=O)N[C@@H](CC(N)=O)C(=O)N[C@@H](CO)C(=O)N[C@@H](CCSC)C(=O)N[C@@H](CCC(=O)O)C(=O)N[C@@H](CCCN=C(N)N)C(=O)N[C@H](C(=O)N[C@@H](CCC(=O)O)C(=O)N[C@@H](Cc1c[nH]c2ccccc12)C(=O)N[C@@H](CC(C)C)C(=O)N[C@@H](CCCN=C(N)N)C(=O)N[C@@H](CCCCN)C(=O)N[C@@H](CCCCN)C(=O)N[C@@H](CC(C)C)C(=O)N[C@@H](CCC(N)=O)C(=O)N[C@@H](CC(=O)O)C(=O)N[C@H](C(=O)N[C@@H](Cc1cnc[nH]1)C(=O)N[C@@H](CC(N)=O)C(=O)N[C@@H](Cc1ccccc1)C(=O)O)C(C)C)C(C)C [PTH(1-34)] | – | – | – | – | – | – | – | – | – | – | – | – | – | – | dose dependent increase | 65% | normal, steady state calcium levels with minimal fluctuation | marked reduction
